Results taken from US9714936B2, “Method for evaluating cosmetic” (SHISEIDO COMPANY, LTD., priority 2011, dated 2017).

Tests used:
[1] = test system: J-TEC Human Reconstituted Epidermis Model (stratum corneum sheet); assay: Change in stratum corneum sheet thickness on wetting and drying (Example 6)
Protocol: (§1) The thickness of a J-TEC Human Reconstituted Epidermis Model (stratum corneum sheet) before the experiment was measured with a caliper (Caliper No. 227-201 by Mitsutoyo Corp.) (one location each) (A). The stratum corneum sheet was further wetted for 30 minutes in a 10% glycerin aqueous solution, an aqueous solution of liquid paraffin (10%), glycerin (10%), POE(60) hydrogenated castor oil (10%), carboxyvinyl polymer (product name: CARBOPOL 981, Lubrizol Advanced Materials, Inc.) (0.2%) and KOH (0.1%) (liquid paraffin+glycerin+thickener aqueous solution), and in 100% ethanol, and immediately upon completion of wetting, the thickness of the stratum corneum sheet was measured with a caliper in the same manner (B).
(§2) It was further dried for 18 hours under conditions of 34° C., 60% humidity and the stratum corneum sheet was measured (C). Using theses results, the thickness change rate (%) of the stratum corneum sheet was measured based on the following formula 1: Thickness change rate (%)=(B−A)×100/A−(C−B)×100/C

[2] = test system: J-TEC Human Reconstituted Epidermis Model (stratum corneum sheet); assay: Visual examination of stratum corneum sheet transparency after wetting and drying (Example 6); settings: visually examined after wetting 30 minutes and drying 18 hours at 34° C., 60% humidity
Protocol: as §1, §2

[3] = test system: freeze-dried J-TEC Human Reconstituted Epidermis model (stratum corneum sheet); assay: Transparency and transmittance of freeze-dried stratum corneum sheet after wetting and drying (FIG. 7); settings: wetted 30 minutes, dried 18 hours at 34° C., 60% humidity
Protocol: The freeze-dried stratum corneum sheet was wetted for 30 minutes in a 10% glycerin aqueous solution, in an aqueous solution of liquid paraffin (10%), glycerin (10%), POE(60) hydrogenated castor oil (10%), carboxyvinyl polymer (product name: CARBOPOL 981 by Lubrizol Advanced Materials, Inc.) (0.2%) and KOH (0.1%) (liquid paraffin+glycerin+thickener aqueous solution), and in 100% ethanol, and after removing the liquid, drying was performed for 18 hours in an atmosphere at 34° C., 60% humidity, and the sheet was photographed (FIG. 7). […] Since higher transparency of the stratum corneum can be considered a more excellent skin condition, the state of improvement in skin can be evaluated based on the thickness change in the stratum corneum cells or cell layer from moistening in a liquid until drying.

CCO [100% Ethanol, ethanol]
Thickness change rate (%) ([1]; (B−A)×100/A−(C−B)×100/C, wetted 30 minutes, dried 18 hours at 34° C., 60% humidity, caliper): 3.9%
change in thickness of stratum corneum sheet when moistened (FIG. 6) ([1]; after wetting with the liquid): no change in thickness
Transparency [2]: Poor
transparency of freeze-dried stratum corneum sheet moistened and then dried (FIG. 7) [3]: low
stratum corneum transmittance of freeze-dried sheet moistened and then dried (FIG. 7) ([3]; HR100 spectrophotometer): low
